Assay results published in patent publication US20070099958A1, “Protease inhibitors” (ProZymex A/S, priority 2003, published 2007).

Key:
CYP3A4 = biological target: T1, CYP3A4 (Homo sapiens, UniProt P08684); assay: CYP3A4 assay (Vivid CYP3A4 Red Screening Kit); type: in vitro ADME; conditions: read-out: Metabolism: CYP enzymes (20 μM cutoff or IC50) CYP3A4
T1 construct: purchased PanVera
Experimental: (§1) Following the procedure for CYP1A2, using the appropriate kits below, the effect of a compound of the invention on the other CYP enzymes was determined:
Vivid® CYP3A4 Red Screening Kit from PanVera.

Human DPP-I = biological target: T2, Human DPP-I (Homo sapiens, UniProt P53634); assay: Human dipeptidyl peptidase I (DPP-I) assay; type: biochemical; conditions: Gly-Phe-AFC substrate, pH 6.0, 37° C.; read-out: Primary enzymatic screening (IC50) DPP-I
T2 construct: purchased UniZyme A/S
T2 sequence (P53634 231-394 limits assumed): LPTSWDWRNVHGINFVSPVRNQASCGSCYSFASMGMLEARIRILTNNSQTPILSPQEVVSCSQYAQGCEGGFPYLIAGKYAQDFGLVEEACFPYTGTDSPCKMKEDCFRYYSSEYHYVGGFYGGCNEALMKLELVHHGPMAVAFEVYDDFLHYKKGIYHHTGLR
T2 sequence (P53634 395-463 limits assumed): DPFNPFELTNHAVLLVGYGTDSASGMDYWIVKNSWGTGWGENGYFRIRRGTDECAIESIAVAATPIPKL
T2 sequence (P53634 25-143 limits assumed): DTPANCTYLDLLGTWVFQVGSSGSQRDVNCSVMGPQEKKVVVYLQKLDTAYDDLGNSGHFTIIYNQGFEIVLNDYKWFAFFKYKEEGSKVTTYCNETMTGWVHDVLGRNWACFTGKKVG
Experimental: Human dipeptidyl Peptidase I (DPP-I) Assay
Using this assay, the IC50 value of a compound of the invention as a DPP-I inhibitor was determined using an AFC substrate.
100 mM sodium phosphate (8.9 g Na2HPO4; M=177.99), 150 mM KCl (5.6 g KCl; M=74.6) and 1.5 mM EDTA (279 mg EDTA; M=372.2) was dissolved in 500 mL H2O, and pH was adjusted to 6.0. Cysteine*HCl (Sigma C-1276; M=157.6), 1 mg/mL assay buffer, corresponding to 6 mM, was added to the solution for activation of the DPP-1 enzyme.
Gly-Phe-AFC*TFA (Enzyme Systems Products AFC-033) was used as the substrate for determination of IC50 values. Km was 270 μM. The substrate was solubilized in DMSO to give a 7.5 mM stock solution (2.2 mg of substrate was added to 0.5 mL DMSO).
Human DPP-I (hDDP-I; obtained from UniZyme A/S, DK-2970Hørsholm, Denmark) was stored at −20° C. in a buffer containing 2.5 mM Na-phosphate, 150 mM NaCl, 2 mM cysteamine, 50% glycerol, pH 7.0 at a concentration of 2.5 mg/mL. This stock solution was diluted 200 times in the assay buffer.
The assay was performed in 96-well plates. […] The excitation wavelength was 400 nm, and the emission was measured at 505 nm for 10 minutes at 37° C. […] In the software (SOFTmax Pro) used for data collection from the fluorometer (Molecular Devices: Gemini XS), it was ensured that the measured slopes were linear (R^2>0.99). […]

CYP2D6 = biological target: T3, CYP2D6 (Homo sapiens, UniProt P10635); assay: CYP2D6 assay (Vivid CYP2D6 Cyan Screening Kit); type: in vitro ADME; conditions: read-out: Metabolism: CYP enzymes (20 μM cutoff or IC50) CYP2D6
T3 construct: purchased PanVera
T3 sequence (P10635 whole entry): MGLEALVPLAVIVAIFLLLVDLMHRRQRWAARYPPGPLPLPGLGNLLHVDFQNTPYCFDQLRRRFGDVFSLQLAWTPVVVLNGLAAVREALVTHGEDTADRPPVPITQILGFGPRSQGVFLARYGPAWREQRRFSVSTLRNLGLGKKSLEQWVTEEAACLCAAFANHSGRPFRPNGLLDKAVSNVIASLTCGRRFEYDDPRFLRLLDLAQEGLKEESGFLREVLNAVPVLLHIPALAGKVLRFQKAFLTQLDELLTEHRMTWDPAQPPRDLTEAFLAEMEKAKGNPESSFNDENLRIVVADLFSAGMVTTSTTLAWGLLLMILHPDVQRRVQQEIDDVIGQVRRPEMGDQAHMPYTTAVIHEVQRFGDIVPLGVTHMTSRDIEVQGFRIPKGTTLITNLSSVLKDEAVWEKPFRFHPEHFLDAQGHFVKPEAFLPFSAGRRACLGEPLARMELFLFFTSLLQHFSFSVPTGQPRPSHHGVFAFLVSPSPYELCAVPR
Experimental: as §1
Vivid® CYP2D6 Cyan Screening Kit from PanVera.

T1 sequence (P08684 2-503 limits assumed): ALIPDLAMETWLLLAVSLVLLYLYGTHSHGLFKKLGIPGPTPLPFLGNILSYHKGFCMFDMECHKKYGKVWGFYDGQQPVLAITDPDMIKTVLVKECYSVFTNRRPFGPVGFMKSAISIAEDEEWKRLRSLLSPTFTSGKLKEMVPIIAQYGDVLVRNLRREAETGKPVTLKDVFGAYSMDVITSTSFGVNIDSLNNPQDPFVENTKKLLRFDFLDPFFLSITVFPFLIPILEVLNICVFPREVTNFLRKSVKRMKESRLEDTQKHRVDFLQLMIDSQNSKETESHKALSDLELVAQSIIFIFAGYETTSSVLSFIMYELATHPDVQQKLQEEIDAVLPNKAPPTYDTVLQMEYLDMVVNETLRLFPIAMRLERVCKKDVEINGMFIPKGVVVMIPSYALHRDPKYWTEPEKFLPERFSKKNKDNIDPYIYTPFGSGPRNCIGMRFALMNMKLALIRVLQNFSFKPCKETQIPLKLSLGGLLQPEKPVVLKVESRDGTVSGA

CC[C@H](N)C(=O)N[C@H](C#N)Cc1ccc(-c2ccccc2)cc1 [Example 5, (2S)—N-[(2S)-2-aminobutanoyl]-2-amino-3-(1,1′-biphenyl-4-yl)propionitrile]
IC50 (CYP3A4): 3.6 ± 3.41 µM
IC50 (Human DPP-I): 0.013 ± 0.003 µM
IC50 (CYP2D6): 12.6 ± 0.677 µM
